Laboratory results as given in US12653862B2, “Anti-senescence compounds and uses thereof” (CLEARA BIOTECH B.V., priority 2020, dated 2026).

Tests used:
[1] = Peptide stability in solution; type: physicochemical
Method: Both peptides were dissolved in H2O and kept at room temperature. The peptide concentration was determined for the indicated time points.

[2] = test system: RPE1 cells; experiment: Senescent vs ctrl human RPE1 cells; type: cell-based; settings: vs FOXO4-DRI (CL03001) within one experiment
Method: Human IMR90, WI38 and RPE cells were grown in Dulbecco's Modified Eagle's Medium (DMEM; Lonza) containing 10% FCS and 1% pen/strep at 37° C. with 3.0% 02 and 5.0% CO2. To induce senescence, cells were irradiated with 10Gy ionizing radiation (Gammacell 1000) and were left for a minimum of 10 days to become senescent.
To perform viability and apoptosis assays, cells were split into 96-well plates and treated with peptides 2 days later. Non-senescent and cancer cells were plated 1500 cells/well, while senescent cells were plated at 8.000 cells/well.

[3] = test system: WT colon and tumor progression (TPO) organoids; experiment: Cell viability of WT colon and tumor progression (TPO) organoids; type: cell-based; settings: increasing concentrations, measured 5 days later
Method: (§1) Organoids were grown at 37° C. and 5% CO2 in a humidified incubator. All organoids were cultured in matrigel (Corning) droplets in advanced DMEM/F12 (Lonza) supplemented with 1% glutamax, 1% Penicillin/Streptomycin, 1% (10 mM) HEPES, 10% Noggin conditioned medium, 2% B-27 (50×; (Thermo/Life Technologies), N-acetylcysteine ((Sigma-Aldrich, 1.25 mM)), A83-01 (Tocris, 500 nM) and SB203580 (Invitrogen/Life Technologies, 3 μM). To perform viability and apoptosis assays, the organoids were passaged through resuspension in ice-cold medium, followed by centrifugation in 15 ml tubes at 4° C. The resulting pellet was trypsinized for 5 minutes at 37° C. to obtain single cells and subsequently washed twice with advanced DMEM/F12 media. These cells were then resuspended in Matrigel and plated in 96-well plates in 5 ul droplets. 100 ul fresh medium was added to the wells 15 minutes later. Peptide and chemotherapy treatment was added to the organoids 2 days after plating.

[4] = test system: CRC29 colorectal cancer organoids; experiment: Apoptosis and viability in patient-derived colorectal cancer organoid line CRC29; type: cell-based, Human
Method: as §1
A Live/dead assay was performed on both larger organoids 3 days after peptide and/or chemotherapy treatment, or on organoids that were treated as single cells and allowed to grow out for 2 weeks before the assay was performed. […] The organoids were then imaged on a Zeiss Cell Observer microscope and the signal was quantified using FIJI. […]

[5] = Grey hair in naturally aged mice; type: in vivo; settings: 24-month old C57BL/6J mice, 3 doses i.v., 4 weeks after first treatment, vs PBS
Description: 24-month old C57BL/6J mice were photographed before receiving 3 doses of either PBS or CL04183 (SEQ ID NO: 55) through i.v. injection. 4 weeks after the first treatment the mice were photographed again.

[6] = test system: CRC29 colorectal cancer organoid line; experiment: Bioluminescence of luciferase-expressing CRC29 transplanted in the caecum of immunodeficient mice; type: in vivo; settings: 3 doses, imaged two days after last dose, vs PBS
Method: (§2) Mouse experiments were performed after approval from the Dutch animal ethics committee. For these experiments male NOD.Cg-Prkdc^scid Il2rg^tmlWjl/SzJ/J mice (Charles River) were employed. Human CRC29 colorectal cancer organoids containing firefly luciferase were implanted into the caecum, resulting in the formation of a primary tumor at this site. The implantation was performed under ketamine and dexmedetomidine anaesthesia. In addition, the animals received carpofen 30 min before surgery and the day after. 14 days after transplantation, the mice were sedated using isoflurane and imaged under the BioSpace Imager. Subsequently, The animals were treated with either PBS or with ′5-Fluorouracil (5-FU) at a dose of 50 mg/kg via i.p. injection. The first dose of CL04183 (2.5 mg/kg) was administered via i.v. injection 1 week after 5-FU treatment and this treatment was repeated 2 and 4 days later. 4 weeks after transplantation, the mice were imaged again to determine treatment effect and subsequently sacrificed. All organs were harvested and imaged under the BioSpace Imager again and the luciferase signal was quantified using the M3 vision software.

[7] = test system: CRC29 colorectal cancer organoid line; experiment: CRC29 metastasis in liver and lung, human nucleoli staining; type: in vivo, mice; settings: 3 doses, vs PBS
Method: as §2
Liver and lung paraffin sections were rehydrated in decreasing concentrations of ethanol before being washed in TBS and boiled for 20 minutes in 10 mM sodium citrate buffer (PH6) for antigen unmasking. […]

[8] = test system: CRC29 lung metastases; experiment: TUNEL assay on CRC29 lung metastases; type: in vivo, mice; settings: vs PBS
Method: as §2
A TUNEL assay was performed on lung metastases to determine apoptosis induction after treatment. […] Images were acquired using a LSM880 confocal microscope (Zeiss) and the percentage of TUNEL-positive cells was analysed using FIJI.

[9] = test system: triple negative breast cancer lines; experiment: MTS cell viability in human breast cancer cell lines; type: cell-based; settings: increasing concentrations, 2 days
[10] = test system: NRAS mutated and BRAF mutated melanoma; experiment: Efficacy against melanoma; type: cell-based

AKIEAAILDAFSQNWRKRRRRQRRKKRG [CL04183]
stability in solution [1]: superior stability | selectivity and potency in senescent vs ctrl cells [2]: superior selectivity and potency | cell viability, sensitivity of organoids with colorectal cancer associated mutations [3]: sensitizes to FOXO4-based peptides, dependent on p53 | apoptosis induction [4]: potently induces apoptosis | grey hair [5]: reduces grey hair | luciferase-expressing colorectal cancer cells (bioluminescence) [6]: reduces luciferase-expressing colorectal cancer cells in vivo | colorectal cancer metastasis in liver and lung [7]: reduces colorectal cancer metastasis in liver and lung | apoptosis in metastatic cancer cells (TUNEL positive cancer cells) [8]: induces apoptosis in metastatic cancer cells in vivo | sensitivity of breast cancer cell lines (cell viability, MTS) [9]: correlating with CL04183 (SEQ ID NO: 55) sensitivity | efficacy against melanoma [10]: efficacy against NRAS mutated and BRAF mutated melanoma
